Results taken from PubChem BioAssay (NCI).
Where “and” joins values, the source holds several entries; their conditions need not be identical. Equal values may be shown once.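 Test compounds were applied to cells in 96-well plates for 48 hours at 5 doses. GI50 = concentration required for 50% inhibition of growth. TGI is the concentration that stops growth completely.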

These compounds were tested on MDA-MB-468 breast (assay: NCI anticancer screen, dose series, 48 h).

Row | Structure (SMILES) | GI50 | TGI
1 | CCN1C(=O)N(CC)C2SC(N/N=C/c3ccc(OC)cc3)=NC21 (stereo unspecified) | 314 nM | 
2 | O=C1/C(=C/c2ccc(Cl)c(Cl)c2)CN(C(=O)CCN2CCC(=NO)CC2)C/C1=C\c1ccc(Cl)c(Cl)c1 | 898 nM | 2.4 µM
3 | Cc1nn(-c2ccc(Cl)cc2)c2ncnc(N/N=C/c3ccccc3O)c12 | 1710 nM and 1030 nM | 6.46 µM and 7.68 µM
4 | COc1ccc(OC)c(/C=C/c2nc(=S)n(-c3ccc(Cl)cc3)[nH]2)c1 | 3510 nM | 55.4 µM
5 | COC(=O)OC1C(O[C@H]2C[C@H]3[C@@H]4CC=C5C[C@@H](O)CC[C@]5(C)[C@H]4CC[C@]3(C)[C@H]2[C@H](C)C(=O)CCC(C)C)OCC(O)C1OC1OCC(O)C(O)C1OC(=O)c1ccc(OC)cc1 (stereo partly specified) | 111 nM | 1.7 µM
6 | Nc1ncnc2c1N=C(c1ccc3c(c1)OCO3)CC(c1ccc(Cl)cc1)N2 (stereo unspecified) | 10100 nM | 54.9 µM
7 | c1ccc(-c2[nH]ncc2-c2ccnc(-c3ccc(OCCn4ccnc4)cc3)c2)nc1 | 12200 nM | > 25 µM
8 | O=C(OCc1ccc2c(Br)cc(Br)c(O)c2n1)c1cc2ccccc2[nH]1 | 419 nM | 1.54 µM
9 | O=C(Nc1cccc(-n2cc(-c3ccncc3)c(-c3cc(O)cc(Cl)c3)n2)c1)c1ccc(N2CCOCC2)c(C(F)(F)F)c1 | 3420 nM | 43.3 µM
10 | FC(F)(F)Oc1cccc(-c2cc(NCCCCCCNc3cc(-c4cccc(OC(F)(F)F)c4)nc4ccc(N5CCCC5)cc34)c3cc(N4CCCC4)ccc3n2)c1 | 1590 nM | 3.21 µM
11 | O=C1NC(=N[C@@H](CO)c2ccccc2)S/C1=C\c1ccc2ncccc2c1 | 5780 nM | > 25 µM
12 | N#Cc1nc2c(S(=O)(=O)c3ccc(Cl)cc3)c(N)n(Nc3cccc(Cl)c3)c2nc1C#N | 7.06 nM | 0.195 µM
13 | COc1ccc2sc3c(NCCCN)nc4ccccc4c3c(=O)c2c1 | 1560 nM | 3.19 µM
14 | CCN(CC)CCCNc1ccc(C)c2sc3ccccc3c(=O)c12 | 365 nM | 1.27 µM
15 | O=C1c2cccc(Oc3ccccc3)c2C(=O)c2cccc(Oc3ccccc3)c21 | > 100000 nM | > 100 µM
16 | CCn1cc(C(=O)O)c(=O)c2cc(F)c(N3CCN(S(=O)(=O)c4cccc5ccccc45)CC3)cc21 | 2520 nM | 7.32 µM
17 | O=C(/C=C/C12c3ccccc3C(c3ccccc31)C1C(=O)NC(=O)C12)c1ccccn1 (stereo unspecified) | 1710 nM | 4.03 µM
18 | Cn1nccc1Nc1nccc(-c2ccn([C@H](CO)c3ccc(Cl)c(F)c3)c(=O)c2)n1 | 18800 nM | 57.9 µM
19 | N#CC1(c2ccc(NC(=O)c3cccnc3NCc3ccncc3)cc2)CCCC1 | 7040 nM | 51.8 µM
20 | OC1(c2ccc(Cl)c(C(F)(F)F)c2)CCN(CCCC(c2ccc(F)cc2)c2ccc(F)cc2)CC1 | 707 nM | 1.37 µM
21 | CC(=O)O[C@H]1C(=O)[C@@]2(C)C([C@H](OC(=O)c3ccccc3)[C@]3(O)C[C@H](OC(=O)[C@H](O)[C@@H](NC(=O)c4ccccc4)c4ccccc4)C(C)=C1C3(C)C)[C@]1(OC(C)=O)CO[C@@H]1C[C@@H]2O (stereo partly specified) | < 5 nM | 0.0545 µM
22 | CN[C@@H](C)C(=O)N[C@H]1CN(S(=O)(=O)c2cccc(S(=O)(=O)N3CC[C@H]4CC[C@@H](C(=O)NC(c5ccccc5)c5ccccc5)N4C(=O)[C@@H](NC(=O)[C@H](C)NC)C3)c2)CC[C@H]2CC[C@@H](C(=O)NC(c3ccccc3)c3ccccc3)N2C1=O | < 10 nM | 0.0819 µM
23 | CNC(=O)c1ncccc1Nc1nc(Nc2cc3c(cc2OC)CCCN3C(=O)CN(C)C)nc2[nH]ccc12 | 435 nM | 2.47 µM
24 | CC(C)(CO)CNC(=O)c1ccc2[nH]c(O)c(N=Nc3ccc(S(N)(=O)=O)cc3)c2c1 | > 17900 nM | > 25 µM
25 | Fc1cccc(Cl)c1/C=N/Nc1nc(N/N=C/c2c(F)cccc2Cl)nc(N2CCCCC2)n1 | 1860 nM | 6.89 µM
26 | N#CC1c2ccccc2C=CN1C(=O)CCCl (stereo unspecified) | 2100 nM | 5.74 µM

Row | Structure (SMILES) | GI50 | TGI
27 | Cc1ccc(O)cc1Nc1ccnc2ccc(S(C)(=O)=O)cc12 | 2040 nM | 9.37 µM
28 | CNCc1cccc2c1OCCOCCOCCN(C)S(=O)(=O)c1ccc(cc1)-c1cnc(N)c(n1)C(=O)N2 | 2620 nM | 14.6 µM
29 | CCCCCCCCCCCC[N+]1(CCCCCCCCCCCC)CCCC(C)C1 (stereo unspecified) | 68.9 nM | 0.388 µM
30 | Cc1cccc(NC(=O)c2sc3nc4c(cc3c2N)C(=O)CCC4)c1 | 80.7 nM | 2.66 µM
31 | Cc1ccc2c(-c3ccnc(Nc4ccc5c(c4)OCCO5)n3)c(-c3ccc(C(F)(F)F)cc3)nn2n1 | 5190 nM | > 25 µM
32 | Cc1c(C(=N)C(C#N)C#N)c(=N)oc2c1ccc1ccccc12 | 13500 nM | 46 µM
33 | CCCCCOc1ccc(/C=N/Nc2cc(C)nc3ccc(Cl)cc23)cc1 | 1700 nM | 3.37 µM
34 | COc1cc2c(N3CCN(C(=O)Nc4ccc(OC(C)C)cc4)CC3)ncnc2cc1OCCCN1CCCCC1 | 14100 nM | 42.9 µM
35 | Nc1nc2c(c3cnccc13)C(c1ccc(Cl)c(Cl)c1)Cc1cnccc1-2 (stereo unspecified) | 270 nM | 0.807 µM
36 | CC(=O)ON1CCCC(P(=O)(OCOC(=O)C(C)(C)C)OCOC(=O)C(C)(C)C)C1=O (stereo unspecified) | 1010 nM | 5.92 µM
37 | CN(C)CCCC1(c2ccc(F)cc2)OCc2cc(-c3cccc4[nH]ccc34)ccc21 (stereo unspecified) | 1790 nM | 3.43 µM
38 | COc1cc2c(cc1Nc1nc(N3CCc4ccccc43)c3cc[nH]c3n1)N(C(=O)CN(C)C)CC2 | 1300 nM | 2.83 µM
39 | C[C@]12CC[C@H]3[C@@H](CCC4=CC(=O)CC[C@@]43C)[C@@H]1CC[C@@H]2c1csc(N)n1 | 1170 nM | 18.5 µM
40 | COc1ccc(OC)c(NCC(=O)n2nc(/C=C\c3ccc(O)c(OC)c3)cc2/C=C\c2ccc(O)c(OC)c2)c1 | 2850 nM | 23.3 µM
41 | CC1(C)N=C(N)N=C(N)N1c1ccc(CCC(=O)Nc2ccc(S(=O)(=O)F)cc2)cc1 | 1010 nM | > 100 µM
42 | CCNc1nc(O)c(/C=C2\C=Nc3ncccc32)s1 | 1990 nM | 4.27 µM
43 | CC1=C(C(=O)Nc2ccccc2)C(c2ccc(N(C)C)cc2)C(C(=O)Nc2ccccc2)=C(C)N1 | 43900 nM | > 100 µM
44 | Cn1c([N+](=O)[O-])cnc1C=C1C(=O)c2ccccc2C1=O | 7350 nM | 33.1 µM
45 | COc1ccc2c(c1)c(-c1nc(-c3c[nH]c4ncccc34)cs1)cn2CCCN1CCOCC1 | 2520 nM | 5.25 µM
46 | CCN(CC)Cc1cc(Nc2nc(NC3CCC(N(C)C)CC3)c3ccccc3n2)ccc1OC (stereo unspecified) | 1640 nM | 3.16 µM
47 | CCN1C(=S)N(CC)C2C1NC(=S)N2/N=C/C=C/c1ccccc1OC (stereo unspecified) | 347 nM | 31.4 µM
48 | CCN(CC)CCCC(C)NCC(=O)NC(c1ccc2c(c1)OCO2)c1cc(Cl)c2cccnc2c1O (stereo unspecified) | 1870 nM | 4.5 µM
49 | O=C1C=C[C@H](O)[C@@]2(CO)O[C@@H]12 | 4610 nM | 20 µM
50 | CCN=c1sc2c(n1NC(=O)c1cc3ccc1CCc1ccc(cc1)CC3)C(=O)c1ccccc1C2=O | 719 nM | 1.83 µM
51 | COc1ccc2c(N)ncc(C#Cc3cc(C(=O)Nc4ccc(CN5CCN(C)CC5)c(C(F)(F)F)c4)cnc3C)c2c1 | 2460 nM | 8.94 µM
